The target in series [1] is T1, Myceliophthora thermophila laccase (MtL, lcc-1), wild type (pRaMB17), SEQ ID NOS:26 and 27 (Thermothelomyces thermophilus, UniProt G2QG31).
T1 sequence (G2QG31 48-602): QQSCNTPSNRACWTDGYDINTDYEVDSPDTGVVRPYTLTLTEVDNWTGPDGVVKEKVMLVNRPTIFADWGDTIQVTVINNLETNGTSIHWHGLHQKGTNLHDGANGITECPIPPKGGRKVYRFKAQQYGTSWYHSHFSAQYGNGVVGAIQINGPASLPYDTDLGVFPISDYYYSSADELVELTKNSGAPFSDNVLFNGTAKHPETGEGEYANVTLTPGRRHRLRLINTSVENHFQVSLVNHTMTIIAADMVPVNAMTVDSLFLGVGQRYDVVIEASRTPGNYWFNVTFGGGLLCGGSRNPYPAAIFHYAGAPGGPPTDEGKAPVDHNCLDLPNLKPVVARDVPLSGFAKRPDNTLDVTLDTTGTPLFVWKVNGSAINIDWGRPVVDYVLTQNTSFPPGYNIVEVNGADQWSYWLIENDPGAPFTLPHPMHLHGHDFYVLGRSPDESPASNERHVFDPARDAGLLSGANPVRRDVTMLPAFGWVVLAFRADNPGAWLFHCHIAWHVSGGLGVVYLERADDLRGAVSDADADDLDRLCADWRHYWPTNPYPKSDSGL
Briefly: Laccase substrate oxidation kinetics (Km, kcat), MtL wild type. In kind it is biochemical. The note with it: 8 mM MES-NaOH buffer, pH 5.3, spectroscopic. On the procedure: (§1) The absorbance at 530 nm is measured over time in a UV-VIS spectrophotometer. One laccase unit (LACU) is defined as the amount of enzyme which oxidizes one µmole of substrate per minute at 30°C.
(§2) Km and kcat are obtained from the initial rate (v), enzyme concentration (E), and substrate concentration (S) in accordance to the equation v = kcat ES/( Km + S) by non-linear regression fitting using the Prizm program (GraphPad, San Diego, CA). […] The O2 concentration in air-saturated buffer solution is assumed as the same in plain water (0.28 mM).

The target of series [2] is T2, Rhizoctonia solani laccase isozyme 4 (RsL, rsl4), wild type (pJiWa59), SEQ ID NOS:24 and 25 (Thanatephorus cucumeris, UniProt Q02081).
T2 construct: made in house; host or cells: Aspergillus oryzae HowB104
T2 sequence (Q02081 20-531): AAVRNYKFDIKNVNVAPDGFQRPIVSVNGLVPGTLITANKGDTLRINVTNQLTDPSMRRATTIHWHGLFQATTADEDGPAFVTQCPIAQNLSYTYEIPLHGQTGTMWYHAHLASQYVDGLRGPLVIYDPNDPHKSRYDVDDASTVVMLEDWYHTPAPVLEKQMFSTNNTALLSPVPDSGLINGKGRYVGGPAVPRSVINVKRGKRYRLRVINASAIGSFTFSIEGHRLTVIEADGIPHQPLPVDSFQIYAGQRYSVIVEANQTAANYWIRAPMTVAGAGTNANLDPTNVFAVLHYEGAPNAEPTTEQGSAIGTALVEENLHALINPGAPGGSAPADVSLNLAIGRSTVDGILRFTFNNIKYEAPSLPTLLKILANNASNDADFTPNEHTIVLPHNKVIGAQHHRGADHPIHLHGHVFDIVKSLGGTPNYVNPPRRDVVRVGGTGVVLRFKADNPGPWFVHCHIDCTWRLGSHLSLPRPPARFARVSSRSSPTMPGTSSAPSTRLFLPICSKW
Briefly: Laccase substrate oxidation kinetics (Km, kcat), RsL wild type. In kind it is biochemical. The note with it: read-out: Km (ABTS); 8 mM MES-NaOH buffer, pH 5.3; spectroscopic. On the procedure:
as §1, §2

Series [3] deals with T3, Myceliophthora thermophila laccase (MtL) mutant "T", V509L/S510E/G511A (pBANe22T) (Thermothelomyces thermophilus, UniProt G2QG31, G554A/S553E/V552L).
T3 sequence (G2QG31 48-602 V552L/S553E/G554A): T1 sequence (G2QG31 48-602)
Put plainly: Laccase substrate oxidation kinetics (Km, kcat), MtL mutant "T". In kind it is biochemical. The note with it: read-out: Km (ABTS); 8 mM MES-NaOH buffer, pH 5.3; spectroscopic. The procedure: as §1, §2

Series [4] deals with COc1cc(C=NN=Cc2cc(OC)c(O)c(OC)c2)cc(OC)c1O. The description is as above. In kind it is biochemical, Myceliophthora thermophila. Particulars: other: 8 mM MES-NaOH buffer, pH 5.3, spectroscopic. On the procedure: as §1, §2

We go through three molecules from patent EP0850306B1, “LACCASES WITH AN ALTERED pH ACTIVITY PROFILE” (Novozymes Biotech, Inc., priority 1995, dated 1997).

In general, Km refers to the substrate concentration at which the rate is half of its maximum. A word on the kcat: it is the number of substrate molecules converted per active site and unit of time at saturation.

Read-outs that look alike come from different tables or passages of the source.

For the molecule `COc1cc(C=NN=Cc2cc(OC)c(O)c(OC)c2)cc(OC)c1O` [SGZ, syringaldazine], the “kcat (SGZ)” value in series [1] amounted to 75 ± 3.33 s⁻¹. Further, the Km in series [1] (read-out: Km (SGZ)) was determined as 1.4 ± 0.2 µM.
Consider `CCn1c(=NN=c2sc3cc(S(=O)(=O)O)ccc3n2CC)sc2cc(S(=O)(=O)O)ccc21` [ABTS, 2,2'-azinobis(3-ethylbenzthiazoline-6-sulfonic acid)], for which the Km in series [2] is 52 ± 6 µM; in series [1] (read-out: Km (ABTS)), 110 ± 20 µM; in series [3], 11 ± 2 µM.
With “Myceliophthora thermophila laccase (MtL) mutant "T", V509L/S510E/G511A (pBANe22T) (Thermothelomyces thermophilus ATCC 42464; G554A/S553E/V552L)”, in series [4], the Km is 0.9 ± 0.2 µM and the kcat is 6 ± 0.333 s⁻¹.
